In experiment [1] the test system is PAF induced vascular permeability change in mouse skin. The experiment in a line: Inhibition of PAF induced vascular permeability change in mouse skin. The format is in vivo, mouse (Hilltop ICR). The following applies: ip, 0.5 h, test compound i.p., PAF i.d., read-out: Inhibition of Vascular Permeability Lesion (ED50 mg/kg). As for the experimental part:
Inhibition of PAF Induced Vascular Permeability Change in Mouse Skin
The rationale for this test is similar to the coinjection test in guinea pigs; however, the test compound was given intraperitoneally rather than coinjected.
Test solutions were prepared as follows: An 80 μg portion of PAF was dissolved in 40 ml of saline to yield a concentration of 2000 ng/ml. A 10 mg portion of histamine diphosphate was dissolved in 100 ml of saline to yield a concentration 100 μg/ml. Test compounds were dissolved in saline and given intraperitoneally (20 mg/kg) 1/2 hour before intradermal challenge with PAF or histamine.
The animals used were Hilltop ICR mice, shaved on their flanks one day before use. The mice were randomly assigned to treated and control groups and were given test compound or saline 1/2 hour before challenge. Each mouse was injected via a tail vein with 0.25 ml of 0.05% Evans' blue dye immediately before the PAF or histamine intradermal injections were made (0.05 ml each), one per side.
Thirty minutes later the animals were killed and the lesions areas measured as described above. Lesion areas in treated animals were expressed as a percent of the control lesions and an ED50 (mg/kg) was calculated from an arcsine area vs. log dose transform.

Experiment [2] deals with PAF induced lethality. The experiment in a line: PAF induced lethality in the mouse. Format: in vivo, mouse (ICR). The following applies: ip, 1 h, mice, test compound i.p. 1/2 hour before PAF i.v., dose that protects 1/2 the animals, read-out: PAF induced Lethality PD50 (mg/kg I.P., 1/2 hour). As for the experimental part: PAF Induced Lethality in the Mouse
Test compounds were evaluated for their ability to prevent death induced by an intravenous injection of a lethal dose of PAF.
ICR mice were given test compounds intraperitoneally as described under Inhibition of PAF Induced Vascular Permeability Change in Mouse Skin, 1/2 hour before an intravenous dose of 100 μg/kg PAF in saline. One hour later the number of dead mice were recorded. Protection was expressed as percent survivors in treated group/percent survivors in control group.

The subject of experiment [3] is PAF induced vascular permeability change in guinea pig skin.
Source text: Platelet Activating Factor (PAF) given intradermally, increases capillary permeability, and plasma proteins (e.g albumin) leak from the vascular space into the interstitial fluids of the skin. If the albumin has been previously stained with Evans' blue dye, the lesion area can be visualized as a blue spot in the .skin. A specific PAF antagonist inhibits the development of increased capillary permeability caused by PAF and reduces the leakage of proteins into the skin. Test compounds were evaluated for non-specific effects by monitoring their ability to inhibit or reduce a histamine induced increase in capillary permeability.
Test Solutions were prepared as follows: Evans' Blue Dye (Sigma E2129) was dissolved in saline to yield a 0.1% w/v solution. A 2 mg/ml stock chloroform solution of PAF (1-phosphotidyl, acetyl-O-alkyl; Sigma P9525) was diluted in saline to give final concentrations of 500 and 250 ng/ml. Saline dilutions were made fresh for each test. Histamine diphosphate solutions (Sigma H7375) were prepared by dissolving 10 mg in 100 ml of saline and diluting to 20 μg/ml with saline. Test compounds were dissolved in ethanol at 10 mg/ml and stored at -70° C. Injection mixtures were made by placing 10 μl of test compound solution into 1.0 ml of either the PAF solutions or the histamine solution.
The animals used were Hartley strain guinea pigs weighing 250-350 g, maintained with food and water ad libitum. The animals were shaved on their back and hind feet one day before use.
Each guinea pig was given an intravenous injection of 2 ml of Evans' blue dye solution into a foot vein. Immediately after, a series of six intradermal injections of 0.1 ml each were given, three on each side of the animal. They were: PAF 50 ng (0.1 ml of a 500 ng/ml solution); PAF 25 ng; and histamine diphosphate 2 μg. The left side injections contain 10 μg of test compound while the right side contain an equivalent amount of the ethanol vehicle to serve as a control.
Thirty minutes later the animals were killed by cervical dislocation and the skin reflected from the back. The lesion areas were approximated as the product of the largest diameter and normal diameter both in mm.
Experiment [4] addresses T1, PAF receptor (Oryctolagus cuniculus, UniProt G1TEI7). The experiment in a line: Inhibition of PAF induced platelet aggregation in washed rabbit platelets. The conditions noted are these: for Ki: calculated from IC50, [PAF] and EC50; for IC50: challenge concentration of PAF 5E9M [sic]. Set-up: In some experiments, washed platelets were used instead of PRP; endogenous in cells; host or cells: washed rabbit platelets. Format: cell-based. As for the experimental part:
(§1) Platelet activating factor (PAF) compounds were evaluated as PAF receptor antagonists in vitro by measuring inhibition of PAF induced platelet aggregation. Platelet aggregation was measured by a modification of the method of A. Wissner, et. al., J. Med. Chem., 27, 1174, 1984.
(§2) Approximately 120-240 ml of blood were collected by cardiac puncture from unanesthetized male New Zealand White rabbits (Whaley's Summit View Farms, Belvedere, N.J.) with the use of 3.2% sodium citrate anticoagulant (1 part of citrate/10 parts of blood). All syringes and pipets were plastic. The blood was gently mixed and immediately centrifuged at 800 rpm for 10 minutes at room temperature to recover the platelet rich plasma (PRP). Platelet poor plasma (PPP) was prepared by centrifuging PRP at 2800 rpm for 10 minutes at room temperature.
(§3) Dilutions (1:3000) Of PRP in Isoton diluent were made and platelet counts were determined on a Coulter Thrombocounter which was standardized with platelet reference standards (Interscience Platelet Control, Portland, Oreg.). PRP platelet counts were adjusted to 500,000 platelets/μl by the addition of PPP.
(§4) L-PAF was obtained from Calbiochem. A stock solution of 1-2 E-3M was prepared in 10% ethanol in water and serial working dilutions were made using phosphate buffered saline (PBS). 1-2 E-3M stock solutions of test compounds were prepared in 100% methanol and serially diluted in PBS. All solutions were made up in plastic tubes, stored on ice and protected from heat and light. Solutions were prepared fresh or frozen at -20° C. and used within 48 hours.
(§5) Incubation mixtures consisted of 400 μl PRP, 50 μl of PBS diluent or test compound and 50 μl of PAF agonist. More specifically, 400 μl of PRP was stabilized in a cuvette for 1-2 minutes at 37° C. in the aggregometer to achieve a stable baseline, then 50 μl of PBS or test compound, was added and incubated for 5 minutes before addition of the challenge concentration of PAF ([…], as determined from the dose response curve for PAF for that experiment). Aggregation was monitored for 5 minutes. Samples containing test compound or diluent were run simultaneously for comparison. Test compounds were initially evaluated at a screening concentration of 1E-5M. Those producing ≥ 50% inhibition of the magnitude of aggregation were then reevaluated in a dose response fashion (final concentrations 1E-7M to 5E-5M) and IC50 values were determined. Ki values were also calculated in some cases from [formula] where Ki =inhibitory constant
(§6) IC50 =molar concentration of test compound which gives 50% inhibition
(§7) [PAF]=molar concentration of PAF used as challenges
(§8) EC50 =molar concentration of PAF which gives 50% of maximal aggregation.
(§9) The recording equipment consisted of single or dual channel Chronolog aggregometers connected to dual channel 10 MV full scale deflection Omniscribe chart recorders (Houston Instruments). […] The bead suspension was used to set the 0% light transmission mark and clear water was used to set the 100% light transmission mark. These limits defined a full scale deflection. The aggregation traces were analyzed by a digitizing method (C. Kohler and B. Zoltan, J. Pharm. Methods, 12, 113, 1984) with x, y coordinate data stored in a computer file. A suitable program computed parameters of interest such as the magnitude of aggregation.
In some experiments, washed platelets were used instead of PRP. Washed platelet suspensions were prepared as follows. PRP was centrifuged at 2800 rpm for 10 minutes to obtain PPP and a platelet pellet. The pellet was gently suspended and washed in calcium free, albumin free Tyrode's buffer, pH 6.3. The suspension was recentrifuged and the washed pellet was resuspended in normal Tyrodes', buffer (with calcium, but albumin free), pH 7.4. Platelet counts were adjusted to 500,00 platelets/μl.

Experiment [5] deals with T1, PAF receptor. The experiment in a line: Inhibition of PAF induced platelet aggregation in rabbit platelet rich plasma (PRP). The format is cell-based, rabbit (male New Zealand White). Set-up: immediately centrifuged at 800 rpm for 10 minutes at room temperature to recover the platelet rich plasma (PRP); endogenous in cells; host or cells: rabbit platelets in platelet rich plasma (male New Zealand White rabbits). The conditions noted are these: for IC50: rabbit platelet rich plasma. As to the method: as §1, §2, §3, §4, §5, §6, §7, §8, §9

Setting [6] is: IC50 (M) PRP, inhibition of PAF-induced platelet aggregation, PAF challenge 1E-6M.
Setting [7] is: IC50 (M) PRP, inhibition of PAF-induced platelet aggregation, PAF challenge 1E-7M.
[8] abbreviates: IC50 (M) PRP, inhibition of PAF-induced platelet aggregation, PAF challenge 5E-8M.
Where [9] appears, read: PAF challenge 5E-8M, read-out: IC50 (M) PRP, inhibition of PAF-induced platelet aggregation.

Structures can show the parent of a compound that is named as a salt.

T1 sequence (G1TEI7 1-342): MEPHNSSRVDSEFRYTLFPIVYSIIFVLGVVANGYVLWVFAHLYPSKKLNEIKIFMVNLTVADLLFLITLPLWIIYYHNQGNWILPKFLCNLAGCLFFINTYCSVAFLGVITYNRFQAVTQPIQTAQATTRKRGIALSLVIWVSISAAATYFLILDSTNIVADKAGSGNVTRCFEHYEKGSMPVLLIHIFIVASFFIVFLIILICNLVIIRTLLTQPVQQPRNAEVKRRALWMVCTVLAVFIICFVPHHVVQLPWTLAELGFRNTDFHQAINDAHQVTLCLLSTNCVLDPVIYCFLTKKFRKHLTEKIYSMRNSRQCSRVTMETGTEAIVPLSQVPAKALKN

As usually defined, the Ki is the dissociation constant of the complex between target and ligand, obtained from inhibition or displacement. Broadly, the IC50 is the concentration that gives 50% inhibition. Take `CCCCCCCCCCCCCCCCCCNC(=O)OCC(COP(=O)([O-])Oc1ccccc1C[n+]1ccsc1)OC` (stereo not drawn) [3-[[2-[(1-Hydroxy-4-methoxy-7-oxo-2,6-dioxa-8-aza-1-phosphahexacosyl)oxy]phenyl]methyl]thiazolium, hydroxide, inner salt, P-oxide]: the ED50 was 5 mg/kg in experiment [1] and under 2.5 mg/kg in experiment [2]. Moreover, in experiment [3], the “Inhibition of Vascular Permeability Lesion (% of Control)” value (from here on “Inhibition … (% of Control)”) is on record as 25 % of Control. Also, the Ki in experiment [4] was 0.0072 µM; in experiment [5], 0.31 µM. For the same compound, the IC50 in experiment [4] was determined as 0.052 µM; in experiment [5] (setting [6]), 2.5e-05 M; in experiment [5] (setting [7]), 1.4e-06 M; in experiment [5] (setting [8]) it was 5.6e-07 M.

As to `CCCCCCCCCCCCCCCCOCC(COP(=O)([O-])Oc1cccc(C[n+]2csc(C)c2)c1)OC` (stereo not drawn) [3-[[3-[[[3-(Hexadecyloxy)-2-methoxypropoxy]hydroxyphosphinyl]oxy]phenyl]methyl]-5-methylthiazolium, hydroxide, inner salt], the results for the ED50 in experiment [1] and in experiment [2] were 4.8 mg/kg and under 1.25 mg/kg, respectively. The “Inhibition … (% of Control)” value in experiment [3] is 24 % of Control. In addition, the values for the Ki in experiment [4] and in experiment [5] were 0.015 µM and 0.21 µM, respectively. Further, the IC50 in experiment [4] stood at 0.032 µM; in experiment [5] (setting [6]) it was 1.2e-05 M; in experiment [5] (setting [7]), 7.1e-07 M; in experiment [5] (setting [8]), 8.2e-07 M.

In the case of `CCCCCCCCCCCCCCCCCCNC(=O)OCC(COP(=O)([O-])Oc1cccc(C[n+]2ccsc2)c1)OC` (stereo not drawn) [3-[[3-[(1-Hydroxy-4-methoxy-7-oxo-2,6-dioxa-8-aza-1-phosphahexacosyl)oxy]phenyl]methyl]thiazolium, hydroxide, inner salt P-oxide], in experiment [1], the ED50 was found to be 6.2 mg/kg. Besides, the “Inhibition … (% of Control)” value in experiment [3] is given as 61.8 % of Control.

Take `CCCCCCCCCCCCCCCCOCC(COCc1cccc(Cn2cc[n+](C)c2)c1)OC` (stereo not drawn) [1-[[3-[[3-(Hexadecyloxy)-2-methoxypropoxy]methyl]phenyl]methyl]-3-methyl-1H-imidazolium, iodide]: the IC50 in experiment [4] amounted to 1.5 µM; in experiment [5] (setting [9]), 3.4e-06 M.

On to `COC(COc1ccc(OCc2ccccc2)cc1)COP(=O)([O-])Oc1cccc(C[n+]2ccsc2)c1` (stereo not drawn) [3-[[3-[[Hydroxy-2-methoxy-3-[4-(phenylmethoxy)phenoxy]propoxy]phosphinyl]oxy]phenyl]methyl]thiazolium, hydroxide, inner salt], for which the ED50 in experiment [1] is 20 mg/kg; in experiment [2], under 25 mg/kg. Also, in experiment [3], the “Inhibition … (% of Control)” value is reported as 67 % of Control. In experiment [5] (setting [8]), this compound displayed a 50% inhibitory concentration (IC50) of 3.3e-05 M.

Consider `CCCCCCCCCCCCOc1cccc(OCC(COP(=O)([O-])Oc2cccc(C[n+]3csc(C)c3)c2)OC)c1C` (stereo not drawn) [3-[[3-[[[3-[3-(Dodecyloxy]-2-methylphenoxy]-2-methoxypropoxy]hydroxyphosphinyl]oxy]phenyl]methyl]-5-methylthiazolium, hydroxide, inner salt], for which the IC50 was found to be 3e-05 M in experiment [5] (setting [6]), 2e-06 M in experiment [5] (setting [7]) and 9.3e-07 M in experiment [5] (setting [8]).

The compound `COC(COCCCCCCCCOc1ccc(-c2ccccc2)cc1)COP(=O)([O-])Oc1cccc(C[n+]2ccsc2)c1` (stereo not drawn) [3-[[3-[[[3-[[8-([1,1'-Biphenyl]-4-yloxy)octyl]-oxy]-2-methyoxypropoxy]hydroxyphosphinyl]-oxy]phenyl]methyl]thiazolium, hydroxide, inner salt] returned an IC50 in experiment [5] (setting [7]) of 2.3e-06 M.

On to `CCCCCCCCCCCCCCCCOCC(COC(=O)c1cccc(C[n+]2ccccn2)c1)OC` (stereo not drawn) [1-[[3-[[3-(Hexadecyloxy)-2-methoxypropoxy]carbonyl]phenyl]methyl]pyridazinium, bromide], for which, in experiment [5] (setting [9]), the IC50 was found to be 1.1e-05 M.

In experiment [5] (setting [7]), `C=C(C)COC(COCCCCCCCCCCCCCCCC)COP(=O)([O-])Oc1cccc(C[N+](C)(C)C)c1` (stereo not drawn) [3-[[[3-(Hexadecyloxy)-2[(2-methyl-2-propeny)oxy]propoxy]hydroxyphosphinyl]-oxy]- --N, --N, --N-trimethylbenzenemethanaminium, hydioxide, inner salt] returned an IC50 of 4.8e-05 M.

For the compound `CCCCCCCCCCCCCCCCOCC(COP(=O)([O-])Oc1cccc(C[n+]2ccccc2)c1)OC` (stereo not drawn) [1-[[3-[[[3-(Hexadecyloxy)-2-methoxypropoxy]hydroxyphosphinyl]oxy]phenyl]methyl]pyridinium, hydroxide, inner salt], the IC50 in experiment [5] (setting [6]) was 0.00018 M; in experiment [5] (setting [7]), 1e-05 M; in experiment [5] (setting [8]) it was 5.78e-06 to 6e-06 M.

Consider `CCCCCCCCCCCCOc1cccc(OCC(COP(=O)([O-])Oc2cccc(C[n+]3ccsc3)c2)OC)c1C` (stereo not drawn) [3-[[3-[[[3-[3-(Dodecyloxy)-2-methylphenoxy]-2-methoxypropoxy]hydroxyphosphinyl]oxy]phenyl]methyl]thiazolium, hydroxide, inner salt], for which the ED50 in experiment [1] is 8.2 mg/kg; in experiment [2], under 1.25 mg/kg. Further, in experiment [3], the “Inhibition … (% of Control)” value was 20.4 % of Control. Moreover, in experiment [5], affinity was put at a Ki of 0.51 µM. The values for the IC50 in experiment [5] (setting [6]), in experiment [5] (setting [7]) and in experiment [5] (setting [8]) were 2.4e-05 M, 1.9e-06 M and 2.3e-06 M, respectively.
